Laboratory results published in patent publication US10450260B2, “NO- and H2S-releasing compounds” (RESEARCH FOUNDATION OF THE CITY UNIVERSITY OF NEW YORK, priority 2011, dated 2019).
“And” between values parts separate entries of the source, which are not always exact repeats. Identical values can stand only once. Like-named read-outs stand apart in the source and are kept apart here.

Experiments:
[1] = biological target: T1, ovine COX-1 (Ovis aries, UniProt P05979); assay: COX-1 enzyme activity, colorimetric inhibitor screening kit; type: biochemical; details: for preference between COX-1 and COX-2 enzyme inhibition: ovine COX-1 vs COX-2
T1 construct: purchased Cayman Chemicals (Ann Arbor, Mich.)
T1 sequence (P05979 25-600): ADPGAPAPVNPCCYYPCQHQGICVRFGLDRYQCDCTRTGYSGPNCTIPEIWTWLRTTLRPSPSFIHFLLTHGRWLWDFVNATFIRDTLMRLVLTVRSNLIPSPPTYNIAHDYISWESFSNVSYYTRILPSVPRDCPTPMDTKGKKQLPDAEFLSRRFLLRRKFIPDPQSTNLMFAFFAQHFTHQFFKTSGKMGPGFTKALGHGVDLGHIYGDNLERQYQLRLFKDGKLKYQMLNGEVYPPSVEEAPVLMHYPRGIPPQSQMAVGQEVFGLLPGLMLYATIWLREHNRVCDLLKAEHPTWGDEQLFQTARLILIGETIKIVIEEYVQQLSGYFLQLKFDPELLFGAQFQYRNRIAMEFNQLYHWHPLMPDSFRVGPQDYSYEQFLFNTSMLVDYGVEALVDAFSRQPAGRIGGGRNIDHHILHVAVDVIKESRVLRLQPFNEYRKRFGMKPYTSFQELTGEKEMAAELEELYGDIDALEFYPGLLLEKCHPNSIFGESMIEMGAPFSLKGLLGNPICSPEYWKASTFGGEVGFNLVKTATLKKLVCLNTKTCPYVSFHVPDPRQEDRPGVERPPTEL

[2] = system: LNCAP human prostate cancer; assay: MTT cell growth inhibition, LNCAP; type: cell-based; details: for IC50: Homo sapiens, LNCaP; for Ratio NSAID/NOSH-NSAID, LNCAP: fold-enhancement in potency over the parent compound
Experimental: (§1) HT-29, SW-480 and HCT-15 human colon adenocarcinoma, MIA PaCa-2 and BxPC-3 human pancreatic cancer, LNCAP human prostate cancer, A549 human lung cancer, MCF-7 (estrogen receptor positive), MDA-MB 231 and SK-BR-3 (estrogen receptor negative) human breast cancer, and Jurkats human leukemia cell lines were obtained from American Type Tissue Collection (Manassas, Va.). All cells lines were grown as monolayers except for the Jurkats which were grown in suspension. The pancreatic and breast cancer cells were grown in Dulbecco's modified Eagle's medium, the prostate, Jurkat, SW-480 and HCT-15 colon cells were grown in RPMI 1640 medium, the lung cells were grown in F-12 and the colon HT-29 cells were grown in McCoy 5A. All media were supplemented with 10% fetal calf serum (Invitrogen, Carlsbad, Calif.) penicillin (50 U/ml), and streptomycin (50 μg/ml) (Invitrogen, Carlsbad, Calif.). Cells were seeded on culture dishes at a density of 25×10^3 cells/cm^2 and incubated at 37° C. in 5% CO2 and 90% relative humidity. Single cell suspensions were obtained by trypsinization (0.05% trypsin/EDTA), and cells were counted using a hemocytometer. Viability was determined by the trypan blue dye exclusion method.
(§2) Cell growth inhibitory effect of NOSH compounds were measured using a colorimetric MTT assay kit (Roche, Indianapolis, Ind.). Cancer cells were plated in 96-well plates at a density of 50,000 cells/well. The cells were incubated for 24 h with different concentrations of NOSH compounds. After the indicated time, 10 μl of MTT dye (3-[4,5-dimethylthiazol-2-yl]-2,5-diphenyl tetrazolium bromide, 5 mg/ml in phosphate buffered saline), was added to each well, and the plates were incubated for 2 hours at 37° C. Then, the media was aspirated, and add 100 μl of the solubilization solution (10% SDS in 0.01 M HCl) was added to each well to solubilize the formant crystals. The absorbance of the plates was measured on an ELISA reader at a wavelength of 570 nm. Each sample was performed in triplicate, and the entire experiment was repeated three times.
(§3) HT-29, SW-480 and HCT-15 human colon adenocarcinoma, MIA PaCa-2 and BxPC-3 human pancreatic cancer, LNCAP human prostate cancer, A549 and H383 human lung cancer, MCF-7, MDA-MB 231 and SK-BR-3 human breast cancer and Jurkat T cell human leukemia cell lines were obtained from American Type Tissue Collection (Manassas, Va.) All cells lines were grown as monolayers except for the Jurkat T cells which were grown as suspension culture. The pancreatic and breast cancer cells were grown in Dulbecco's modified Eagle's medium, the prostate, Jurkat, SW-480 and HCT-15 colon cells were grown in RPMI 1640 medium, the lung cells were grown in F-12 and the colon HT-29 cells were grown in McCoy 5A. All media were supplemented with 10% fetal calf serum (Invitrogen, Carlsbad, Calif.) penicillin (50 U/ml), and streptomycin (50 μg/ml) (Invitrogen, Carlsbad, Calif.). Cells were seeded on culture dishes at a density of 25×10^3 cells/cm^2 and incubated at 37° C. in 5% CO2 and 90% relative humidity. Single cell suspensions were obtained by trypsinization (0.05% trypsin/EDTA), and cells were counted using a hemacytometer. The final DMSO concentration was adjusted in all media to 1%. Viability was determined by the trypan blue dye exclusion method.
(§4) Cell growth inhibitory effect of all NOSH-NSAIDs was measured using a colorimetric MTT assay kit (Roche, Indianapolis, Ind.). Cancer cells were plated in 96-well plates at a density of 30,000-50,000 cells/well depending on cell type. The cells were incubated for 24 hours with different concentrations of NOSH-NSAIDs. After the indicated time, 10 μL of MTT dye (3-[4,5-dimethylthiazol-2-yl]-2,5-diphenyl tetrazolium bromide, 5 mg/mL in phosphate buffered saline), was added to each well, and the plates were incubated for 2 hours at 37° C. Then, the media was aspirated, and 100 μL of the solubilization solution (10% SDS in 0.01 M HCl) was added to each well to solubilize the formant crystals. […]

[3] = system: A549 human lung cancer; assay: MTT cell growth inhibition, A549; type: cell-based; details: for IC50: Homo sapiens, A549; for Ratio NSAID/NOSH-NSAID, A549: fold-enhancement in potency over the parent compound
Experimental: as §1, §2, §3, §4

[4] = 24 hours, read-out: IC50 for cell growth inhibition, Lung A540
[5] = 24 hours (Table 7), read-out: IC50 for cell growth inhibition, Lung A549

Structure (SMILES): CC(=O)Oc1ccccc1C(=O)O [ASA, aspirin, reference compound]
- COX-1, % Inhibition ([1]; 1 mM (Table 6)): 53.2±1.8%
- COX 1-% Inhibition ([1]; 1 mM, 15 min at 4° C. (Table 8)): 84.9% and 85.9%
- COX 1-% Inhibition ([1]; 3 mM (Table 8)): 86.5%

Structure (SMILES): O=C(CCCO[N+](=O)[O-])Oc1ccccc1C(=O)Oc1ccc(-c2cc(=S)ss2)cc1 [NOSH-1, 4-(3-thioxo-3H-1,2-dithiol-5-yl)phenyl 2-((4-(nitrooxy)butanoyl)oxy)benzoate]
- inhibition at 0.025 µM ([1]; 25 nM (Table 6)): 8.3 ± 1%
- inhibition at 0.05 µM ([1]; 50 nM (Table 6)): 45.2 ± 2%
- inhibition at 0.05 µM ([1]; 50 nM (Table 8)): 52.6%
- COX 1-% Inhibition ([1]; 50 nM (Table 8), listed as NOSH-ASA, 0.05 µM): 47.6%
- inhibition at 0.1 µM ([1]; 100 nM (Table 6)): 69.4 ± 2.2%
- inhibition at 0.1 µM ([1]; 100 nM (Table 8)): 67.9%
- preference between COX-1 and COX-2 enzyme inhibition [1]: preferentially inhibits COX-1
- IC50 ([2]; 24 hours): 0.088 ± 0.008 µM
- IC50 [3, 4]: 0.05 ± 0.007 µM

Structure (SMILES): O=C(CCC(=O)Oc1ccccc1C(=O)Oc1ccc(-c2cc(=S)ss2)cc1)OCCCCO[N+](=O)[O-] [NOSH-2, 4-(nitrooxy)butyl (2-((4-(3-thioxo-3H-1,2-dithiol-5-yl)phenoxy)carbonyl)phenyl) succinate]
- IC50 ([2]; 24 hours): 0.1 ± 0.012 µM
- IC50 [3, 4]: 0.12 ± 0.014 µM

Structure (SMILES): NC(=S)c1ccc(OC(=O)c2ccccc2OC(=O)CCCO[N+](=O)[O-])cc1 [NOSH-3, 4-carbamothioylphenyl 2-((4-(nitrooxy)butanoyl)-oxy)benzoate]
- IC50 ([2]; 24 hours): 4.3 ± 0.212 µM
- IC50 [3, 4]: 6.5 ± 0.224 µM

Structure (SMILES): O=C(CCCC[C@@H]1CCSS1)Oc1ccccc1C(=O)OCCCCO[N+](=O)[O-] [NOSH-4, (R)-4-(nitrooxy)butyl 2-((5-(1,2-dithiolan-3-yl)pentanoyl)oxy)benzoate]
- IC50 ([2]; 24 hours): 0.5 ± 0.018 µM
- IC50 [3, 4]: 0.3 ± 0.012 µM

Structure (SMILES): CC(C(=O)Oc1ccc(-c2cc(=S)ss2)cc1)c1ccc2cc(OC(=O)CCCO[N+](=O)[O-])ccc2c1 (centres unmarked) [NOSH-7, 6-(1-oxo-1-(4-(3-thioxo-3H-1,2-dithiol-5-yl)phenoxy)propan-2-yl)naphthalen-2-yl 4-(nitrooxy)butanoate]
- inhibition at 0.08 µM ([1]; 80 nM (Table 8)): 42.5%
- COX 1-% Inhibition ([1]; 80 nM (Table 8), listed as NOSH-NAPROXEN, 0.08 µM): 44.4%
- inhibition at 0.16 µM ([1]; 160 nM (Table 8)): 52.3%
- preference between COX-1 and COX-2 enzyme inhibition [1]: preferentially inhibited COX-1
- IC50 ([2]; 24 hours (Table 7)): 0.13 µM
- Ratio NSAID/NOSH-NSAID, LNCAP [2]: 23,000
- IC50 [3, 5]: 0.1 µM
- Ratio NSAID/NOSH-NSAID, A549 [3]: 26,500

Structure (SMILES): CC1=C(CC(=O)Oc2ccc(OC(=O)CCCO[N+](=O)[O-])c(C(=O)Oc3ccc(-c4cc(=S)ss4)cc3)c2)c2cc(F)ccc2/C1=C/c1ccc([S+](C)[O-])cc1 (centres unmarked) [NOSH-8, (E)-4-(3-thioxo-3H-1,2-dithiol-5-yl)phenyl 5-(2-(5-fluoro-2-methyl-1-(4-(methylsulfinyl)benzylidene)-1H-inden-3-yl)acetoxy)-2-((4-(nitrooxy)butanoyl)oxy)benzoate]
- inhibition at 0.089 µM ([1]; 89 nM (Table 8)): 43.4%
- COX 1-% Inhibition ([1]; 89 nM (Table 8), listed as NOSH-SULINDAC, 0.089 µM): 45.0%
- preference between COX-1 and COX-2 enzyme inhibition [1]: preferentially inhibited COX-1
- IC50 ([2]; 24 hours (Table 7)): 0.09 µM
- Ratio NSAID/NOSH-NSAID, LNCAP [2]: 9,000
- IC50 [3, 5]: 0.18 µM
- Ratio NSAID/NOSH-NSAID, A549 [3]: 1,177

Structure (SMILES): COc1ccc2cc([C@H](C)C(=O)O)ccc2c1 [naproxen, reference compound]
- COX 1-% Inhibition ([1]; 3 mM (Table 8)): 80.1%
- inhibition at 3000 µM ([1]; read-out: COX 1-% Inhibition, 3 mM (Table 8)): 84.7%
- inhibition at 6000 µM ([1]; read-out: COX 1-% Inhibition, 6 mM (Table 8)): 91.9%

Structure (SMILES): CC1=C(CC(=O)O)c2cc(F)ccc2/C1=C\c1ccc([S+](C)[O-])cc1 (centres unmarked) [sulindac, reference compound]
- inhibition at 800 µM ([1]; 800 μM (Table 8)): 84%
- COX 1-% Inhibition ([1]; 800 μM (Table 8), 800 µM): 81.0%
- inhibition at 1600 µM ([1]; 1600 μM (Table 8)): 89.1%
- IC50 ([2]; 24 hours (Table 7)): 810 µM
- IC50 [3, 5]: 212 µM
